# Laboratory results reported in paper PMC11528023, “Transport mechanism and structural pharmacology of human urate transporter URAT1” (Cell Research, 2024).
# pIC50: −log10 of the molar value.
# Molecular target: T1, URAT1EM (Homo sapiens, UniProt Q96S37, A280P/A304R/A323S/A335R/D313K/DEL311-312/DEL60-62/G295A/G309E/G331A/G338L/G65T/I63V/INS307H/L287I/L292P/L321M/L328V/L337V/L341F/L64S/M324V/M330S/M343V/P317I/P333E/Q332K/R291K/R301K/R325K/R342C/S329A/T288I/T289K/T314N/T339D/W294Q/W300R)
# T1 construct: human URAT1 (residues 3–553), a (GGGGS)3 linker, and C-terminal DARPinoff7; expressed in transfected cells; host or cells: HEK293 cells (ATCC, CRL-3216), transient transfection
# T1 sequence (Q96S37 with tags, fused parts or gaps DEL60-62/I63V/L64S/G65T/A280P/L287I/T288I/T289K/R291K/L292P/W294Q/G295A/W300R/R301K/A304R/INS307H/G309E/DEL311-312/D313K/T314N/P317I/L321M/A323S/M324V/R325K/L328V/S329A/M330S/G331A/Q332K/P333E/A335R/L337V/G338L/T339D/L341F/R342C/M343V): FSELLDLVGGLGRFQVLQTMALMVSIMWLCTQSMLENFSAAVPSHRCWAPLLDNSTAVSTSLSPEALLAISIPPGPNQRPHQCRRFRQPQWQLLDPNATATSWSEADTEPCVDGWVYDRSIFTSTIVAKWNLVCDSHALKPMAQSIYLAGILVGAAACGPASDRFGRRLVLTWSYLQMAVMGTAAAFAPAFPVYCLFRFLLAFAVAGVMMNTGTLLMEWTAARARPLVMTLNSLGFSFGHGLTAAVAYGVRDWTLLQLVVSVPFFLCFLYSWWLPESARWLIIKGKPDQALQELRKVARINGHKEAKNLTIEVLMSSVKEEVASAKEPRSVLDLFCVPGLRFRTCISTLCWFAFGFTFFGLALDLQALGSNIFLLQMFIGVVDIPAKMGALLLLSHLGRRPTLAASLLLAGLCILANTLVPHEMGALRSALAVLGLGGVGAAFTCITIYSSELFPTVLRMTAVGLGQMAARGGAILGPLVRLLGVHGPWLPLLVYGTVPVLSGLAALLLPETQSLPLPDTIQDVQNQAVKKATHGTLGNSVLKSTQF
# Test: 14C-urate uptake in HEK293 cells expressing URAT1EM (cryo-EM construct)
# Type: cell-based
# Procedure: Data are shown as mean ± SD; n = 3 biological replicates. In a, b, uptake buffer: 20 mM HEPES pH 7.4, 125 mM sodium gluconate, 4.8 mM potassium gluconate, 1.2 mM monobasic potassium phosphate, 1.2 mM magnesium sulfate, 1.3 mM calcium gluconate, and 5.6 mM glucose. c Cryo-EM density maps of URAT1 in the apo and substrate-bound states. […] Putative lipid densities are in light cyan. d Cryo-EM density maps of URAT1 in the drug-bound states. […] Putative lipid densities are in light cyan. e Diagram of URAT1 topology. ECD, extracellular domain. f Structure of URAT1 in the apo state. g Slice view of URAT1 in the apo state, showing the central cavity and opening to the intracellular side.
# Human embryonic kidney (HEK) 293 cells (ATCC, CRL-3216) were seeded onto poly(D-lysine)-coated 96-well plates at a density of 0.3 × 10^5 cells per well and cultured at 37 °C until reaching approximately 70%–80% confluence. The cells were transiently transfected with plasmids encoding the URAT1 WT or mutants using Lipofectamine 3000 (Invitrogen, L3000001), following the manufacturer’s protocol. The transfected cells were cultured at 37 °C for 12 h. Following this, 10 mM sodium butyrate was added, and the cells were further incubated at 30 °C for an additional 24 h. […]
structure (smiles),measurement,value
O=C(c1cc(Cl)c(O)c(Cl)c1)N1CS(=O)(=O)c2ccccc21 [dotinurad],pIC50,6.72
